According to patent US7273848B2, “Apolipoprotein A-I agonists and their use to treat dyslipidemic disorders” (priority 1997, dated 2007):
Non-standard residues stand in square brackets, D forms with d. Residues, ends and D or L forms follow the SMILES beside them. Aib = CC(C)(N)C(=O)O

Biological target: T1, LCAT (purified from human plasma) (Homo sapiens, UniProt P04180)
T1 construct: from tissue; host or cells: human plasma
T1 sequence (P04180 25-440): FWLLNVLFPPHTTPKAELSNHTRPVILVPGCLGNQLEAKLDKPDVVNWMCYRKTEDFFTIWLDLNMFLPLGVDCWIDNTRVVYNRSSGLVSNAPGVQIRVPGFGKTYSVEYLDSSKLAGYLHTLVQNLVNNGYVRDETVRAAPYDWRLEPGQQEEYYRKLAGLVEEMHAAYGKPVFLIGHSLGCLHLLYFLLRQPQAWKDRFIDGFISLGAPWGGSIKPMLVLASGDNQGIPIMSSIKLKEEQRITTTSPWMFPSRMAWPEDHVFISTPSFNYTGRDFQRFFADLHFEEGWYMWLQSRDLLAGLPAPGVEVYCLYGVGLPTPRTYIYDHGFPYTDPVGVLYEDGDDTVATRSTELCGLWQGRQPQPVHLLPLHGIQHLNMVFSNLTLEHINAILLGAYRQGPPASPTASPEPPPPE
Test: LCAT activation assay
Type: biochemical
Conditions: LCAT activation as compared with native human ApoA-I (= 100%), equivalent masses
Protocol: The peptides synthesized as described in Section 6, supra, were analyzed in vitro for their ability to activate LCAT. In the LCAT assay, substrate vesicles (small unilamellar vesicles or “SUVs”) composed of egg phophatidylcholine (EPC) or 1-Palmitoyl-2-oleyl-phosphatidyl-choline (POPC) and radiolabelled cholesterol are preincubated with equivalent masses either of peptide or ApoA-I (isolated from human plasma). The reaction is initiated by addition of LCAT (purified from human plasma). Native ApoA-I, which was used as positive control, represents 100% activation activity. “Specific activity” (i.e., units of activity (LCAT activation)/unit of mass) of the peptides can be calculated as the concentration of peptide that achieves maximum LCAT activation. For example, a series of concentrations of the peptide (e.g., a limiting dilution) can be assayed to determine the “specific activity” for the peptide—the concentration which achieves maximal LCAT activation (i.e., percentage conversion of cholesterol to cholesterol ester) at a specific timepoint in the assay (e.g., 1 hr.). When plotting percentage conversion of cholesterol at, e.g., 1 hr., against the concentration of peptide used, the “specific activity” can be identified as the concentration of peptide that achieves a plateau on the plotted curve.
The vesicles used in the LCAT assay are SUVs composed of egg phosphatidylcholine (EPC) or 1-palmitoyl-2-oleyl-phosphatidylcholine (POPC) and cholesterol with a molar ratio of 20:1. To prepare a vesicle stock solution sufficient for 40 assays, 7.7 mg EPC (or 7.6 mg POPC; 10 μmol), 78 μg (0.2 μmol) 4-^14C-cholesterol, 116 μg cholesterol (0.3 μmol) are dissolved in 5 ml xylene and lyophilized. Thereafter 4 ml of assay buffer is added to the dry powder and sonicated under nitrogen atmosphere at 4° C. Sonication conditions: Branson 250 sonicator, 10 mm tip, 6×5 minutes; Assay buffer: 10 mM Tris, 0.14 M NaCl, 1 mM EDTA, pH 7.4). The sonicated mixture is centrifuged 6 times for 5 minutes each time at 14,000 rpm (16,000×g) to remove titanium particles. The resulting clear solution is used for the enzyme assay.
For the LCAT purification, dextran sulfate/Mg^2+ treatment of human plasma is used to obtain lipoprotein deficient serum (LPDS), which is sequentially chromatographed on Phenylsepharose, Affigelblue, ConcanavalinA sepharose and anti-ApoA-I affinity chromatography, as summarized for a representative purification in TABLE IX, below: […]

Row | Structure (SMILES) | ACTIVITY (%) LCAT [%]
1 | CC(C)C[C@H](NC(=O)[C@H](C)NC(=O)[C@H](CCC(=O)O)NC(=O)[C@H](CC(C)C)NC(=O)C(C)(C)NC(=O)[C@H](CCC(=O)O)NC(=O)[C@H](CC(N)=O)NC(=O)[C@H](CC(C)C)NC(=O)[C@H](CCCCN)NC(=O)[C@H](Cc1c[nH]c2ccccc12)NC(=O)[C@H](CCCNC(=N)N)NC(=O)[C@H](Cc1ccccc1)NC(=O)[C@H](CCC(=O)O)NC(=O)[C@H](CC(=O)O)NC(=O)[C@H](CC(C)C)NC(=O)[C@@H](NC(=O)[C@@H]1CCCN1)C(C)C)C(=O)N[C@@H](CCCCN)C(=O)N[C@@H](CCC(N)=O)C(=O)N[C@@H](CCCCN)C(=O)N[C@@H](CC(C)C)C(=O)N[C@@H](CCCCN)C(=O)O [compound 61, PVLDEFRWKLNEXLEALKQKLK] (H-PVLDEFRWKLNE[Aib]LEALKQKLK-OH) | 16
2 | CC(C)C[C@H](NC(=O)[C@H](C)NC(=O)[C@H](CCC(=O)O)NC(=O)[C@H](CC(C)C)NC(=O)C(C)(C)NC(=O)[C@H](CCC(=O)O)NC(=O)[C@H](CC(N)=O)NC(=O)[C@H](CC(C)C)NC(=O)[C@H](CCCCN)NC(=O)[C@H](CCC(=O)O)NC(=O)[C@H](CCCNC(=N)N)NC(=O)[C@H](Cc1ccccc1)NC(=O)[C@H](CCC(=O)O)NC(=O)[C@H](CC(=O)O)NC(=O)[C@H](CC(C)C)NC(=O)[C@@H](N)C(C)C)C(=O)N[C@@H](CCCCN)C(=O)N[C@@H](CCC(N)=O)C(=O)N[C@@H](CCCCN)C(=O)N[C@@H](CC(C)C)C(=O)N[C@@H](CCCCN)C(=O)O [compound 65, ~VLDEFREKLNEXLEALKQKLK] (H-VLDEFREKLNE[Aib]LEALKQKLK-OH) | 15
3 | CC(C)C[C@H](NC(=O)[C@H](C)NC(=O)[C@H](CCC(=O)O)NC(=O)[C@H](CC(C)C)NC(=O)C(C)(C)NC(=O)[C@H](CCC(=O)O)NC(=O)[C@H](CCCCN)NC(=O)[C@H](CC(C)C)NC(=O)[C@H](CC(C)C)NC(=O)[C@H](CCC(=O)O)NC(=O)[C@H](CCCNC(=N)N)NC(=O)[C@H](Cc1ccccc1)NC(=O)[C@H](CCC(=O)O)NC(=O)[C@H](CC(=O)O)NC(=O)[C@H](CC(C)C)NC(=O)[C@@H](NC(=O)[C@@H]1CCCN1)C(C)C)C(=O)N[C@@H](CCCCN)C(=O)N[C@@H](CCC(N)=O)C(=O)N[C@@H](CCCCN)C(=O)N[C@@H](CC(C)C)C(=O)N[C@@H](CCCCN)C(=O)O [compound 68, PVLDEFRELLKEXLEALKQKLK] (H-PVLDEFRELLKE[Aib]LEALKQKLK-OH) | 14
4 | CC(C)C[C@H](NC(=O)[C@H](C)NC(=O)[C@H](CCC(=O)O)NC(=O)[C@H](CC(C)C)NC(=O)C(C)(C)NC(=O)[C@H](CCC(=O)O)NC(=O)[C@H](CC(N)=O)NC(=O)[C@H](CC(C)C)NC(=O)[C@H](CCCCN)NC(=O)[C@H](CCCCN)NC(=O)[C@H](CCCNC(=N)N)NC(=O)[C@H](Cc1ccccc1)NC(=O)[C@H](CCC(=O)O)NC(=O)[C@H](CC(=O)O)NC(=O)[C@H](CC(C)C)NC(=O)[C@@H](NC(=O)[C@@H]1CCCN1)C(C)C)C(=O)N[C@@H](CCCCN)C(=O)N[C@@H](CCC(N)=O)C(=O)N[C@@H](CCCCN)C(=O)N[C@@H](CC(C)C)C(=O)N[C@@H](CCCCN)C(=O)O [compound 69, PVLDEFRKKLNEXLEALKQKLK] (H-PVLDEFRKKLNE[Aib]LEALKQKLK-OH) | 13
5 | CC(C)C[C@H](NC(=O)[C@H](C)NC(=O)[C@H](CCC(=O)O)NC(=O)C(C)(C)NC(=O)[C@H](CC(C)C)NC(=O)[C@H](CCC(=O)O)NC(=O)[C@H](CC(N)=O)NC(=O)[C@H](CC(C)C)NC(=O)[C@H](CCCCN)NC(=O)[C@H](CCC(=O)O)NC(=O)[C@H](CCCNC(=N)N)NC(=O)[C@H](Cc1ccccc1)NC(=O)[C@H](CCC(=O)O)NC(=O)[C@H](CC(=O)O)NC(=O)[C@H](CC(C)C)NC(=O)[C@@H](NC(=O)[C@@H]1CCCN1)C(C)C)C(=O)N[C@@H](CCCCN)C(=O)N[C@@H](CCC(N)=O)C(=O)N[C@@H](CCCCN)C(=O)N[C@@H](CC(C)C)C(=O)N[C@@H](CCCCN)C(=O)O [compound 71, PVLDEFREKLNELXEALKQKLK] (H-PVLDEFREKLNEL[Aib]EALKQKLK-OH) | 11
6 | CC(C)C[C@H](NC(=O)[C@H](C)NC(=O)[C@H](Cc1c[nH]c2ccccc12)NC(=O)[C@H](CC(C)C)NC(=O)C(C)(C)NC(=O)[C@H](CCC(=O)O)NC(=O)[C@H](CC(N)=O)NC(=O)[C@H](CC(C)C)NC(=O)[C@H](CC(C)C)NC(=O)[C@H](CCC(=O)O)NC(=O)[C@H](CCCNC(=N)N)NC(=O)[C@H](Cc1ccccc1)NC(=O)[C@H](CC(C)C)NC(=O)[C@H](CC(=O)O)NC(=O)[C@H](CC(C)C)NC(=O)[C@@H](NC(=O)[C@@H]1CCCN1)C(C)C)C(=O)N[C@@H](CCCCN)C(=O)N[C@@H](CCC(N)=O)C(=O)N[C@@H](CCCCN)C(=O)N[C@@H](CC(C)C)C(=O)N[C@@H](CCCCN)C(=O)O [compound 72, PVLDLFRELLNEXLWALKQKLK] (H-PVLDLFRELLNE[Aib]LWALKQKLK-OH) | 11

The next lines start with the values.

Row | ACTIVITY (%) LCAT [%] | Structure (SMILES)
7 | 18 | CC(C)C[C@H](NC(=O)[C@H](CCCCN)NC(=O)[C@H](CCC(N)=O)NC(=O)[C@H](CCCCN)NC(=O)[C@H](CC(C)C)NC(=O)[C@H](C)NC(=O)[C@H](CCC(=O)O)NC(=O)[C@H](CC(C)C)NC(=O)C(C)(C)NC(=O)[C@H](CCC(=O)O)NC(=O)[C@H](CC(N)=O)NC(=O)[C@H](CC(C)C)NC(=O)[C@H](CCCCN)NC(=O)[C@H](CCC(=O)O)NC(=O)[C@H](CCCNC(=N)N)NC(=O)[C@H](Cc1ccccc1)NC(=O)[C@H](CCC(=O)O)NC(=O)[C@H](CC(=O)O)NC(=O)[C@H](CC(C)C)NC(=O)[C@@H](NC(=O)[C@@H]1CCCN1)C(C)C)C(=O)O [compound 58, PVLDEFREKLNEXLEALKQKL~] (H-PVLDEFREKLNE[Aib]LEALKQKL-OH)
8 | 16 | CC(C)C[C@H](NC(=O)[C@H](C)NC(=O)[C@H](CCC(=O)O)NC(=O)[C@H](CC(C)C)NC(=O)C(C)(C)NC(=O)[C@H](CCC(=O)O)NC(=O)[C@H](CC(N)=O)NC(=O)[C@H](CC(C)C)NC(=O)[C@H](CCCCN)NC(=O)[C@H](CCC(=O)O)NC(=O)[C@H](CCCNC(=N)N)NC(=O)[C@H](Cc1ccccc1)NC(=O)[C@H](Cc1ccccc1)NC(=O)[C@H](CC(=O)O)NC(=O)[C@H](CC(C)C)NC(=O)[C@@H](NC(=O)[C@@H]1CCCN1)C(C)C)C(=O)N[C@@H](CCCCN)C(=O)N[C@@H](CCC(N)=O)C(=O)N[C@@H](CCCCN)C(=O)N[C@@H](CC(C)C)C(=O)N[C@@H](CCCCN)C(=O)O [compound 63, PVLDFFREKLNEXLEALKQKLK] (H-PVLDFFREKLNE[Aib]LEALKQKLK-OH)
9 | 15 | CC(C)C[C@H](NC(=O)[C@H](C)NC(=O)[C@H](CCC(=O)O)NC(=O)[C@H](CC(C)C)NC(=O)C(C)(C)NC(=O)[C@H](CCC(=O)O)NC(=O)[C@H](CC(N)=O)NC(=O)[C@H](CC(C)C)NC(=O)[C@H](CCCCN)NC(=O)[C@H](CCC(=O)O)NC(=O)[C@H](CCCNC(=N)N)NC(=O)[C@H](Cc1ccccc1)NC(=O)[C@H](CCC(=O)O)NC(=O)[C@H](CC(=O)O)NC(=O)[C@H](CC(C)C)NC(=O)[C@H](Cc1c[nH]c2ccccc12)NC(=O)[C@@H]1CCCN1)C(=O)N[C@@H](CCCCN)C(=O)N[C@@H](CCC(N)=O)C(=O)N[C@@H](CCCCN)C(=O)N[C@@H](CC(C)C)C(=O)N[C@@H](CCCCN)C(=O)O [compound 64, PWLDEFREKLNEXLEALKQKLK] (H-PWLDEFREKLNE[Aib]LEALKQKLK-OH)
